Reference: patent US8163766B2, “Beta-secretase modulators and methods of use” (Amgen Inc., priority 2005, dated 2012)

test system: Aβ 40 in conditioned media of cells stably expressing Amyloid Precursor Protein (APP); assay: BACE Cell-Based Assay (Aβ40 in conditioned medium, sandwich ELISA); settings: 24 hours of incubation with the test compounds, Aβ 40 by sandwich ELISA, read-out: IC50 values in the cell-based assay (inhibition of Aβ 40)
Procedure, shortened: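 IC50 derived from Aβ40 reduction in supernatants, quantified by europium time-resolved fluorescence ELISA with pAb40/biotin-6E10 antibodies incubated at 4°C. Cells stably expressing APP received compound for 24 h, ten concentrations from 100 μM or 10 μM top, final DMSO 0.1%.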

IC50, ≤ 5 µM:
CCc1ccc2c(c1)[C@@H](NC[C@@H](O)[C@H](Cc1ccccc1)NC(=O)[C@@H]1CN(C(=O)N3CCCCC3)CCO1)CC(C)(C)O2 [Example 485, (2S)-N-((1S,2R)-3-(((4S)-6-ethyl-2,2-dimethyl-3,4-dihydro-2H-chromen-4-yl)amino)-2-hydroxy-1-(phenylmethyl)propyl)-4-(1-piperidinylcarbonyl)-2-morpholinecarboxamide]
C[C@@H](N[C@H]1CC(C)(C)Oc2ccc(Br)cc21)[C@H](O)[C@H](Cc1ccccc1)NC(=O)c1cc(-c2ccccn2)c(=O)n(C2CCCC2)c1 [Example 480, N-((1S,2S,3R)-3-(((4S)-6-bromo-2,2-dimethyl-3,4-dihydro-2H-chromen-4-yl)amino)-2-hydroxy-1-(phenylmethyl)butyl)-1′-cyclopentyl-2′-oxo-1′,2′-dihydro-2,3′-bipyridine-5′-carboxamide]
CCc1ccc2c(c1)[C@@H](NC[C@@H](O)[C@H](Cc1ccccc1)NC(=O)c1ccc(=O)n(C3CCCCC3)c1)CC1(CCCC1)O2 [Example 160]
O=C(N[C@@H](Cc1ccccc1)[C@H](O)CN[C@H]1CC2(CCCC2)Oc2ccccc21)c1ccc(=O)n(C2CCCC2)c1 [Example 149, 1-cyclopentyl-N-((2S,3R)-4-((S)-2,2-spirocyclopentylchroman-4-ylamino)-3-hydroxy-1-phenylbutan-2-yl)-6-oxo-1,6-dihydropyridine-3-carboxamide]
CCc1ccc2c(c1)[C@@H](NC[C@@H](O)[C@H](Cc1ccccc1)NC(=O)[C@H]1CN(C(=O)c3cccc(C)c3)CCO1)CC1(CCC1)O2 [Example 511, (2R)-N-((1S,2R)-3-(((4S)-6-ethyl-3,4-dihydrospiro[chromene-2,1′-cyclobutan]-4-yl)amino)-2-hydroxy-1-(phenylmethyl)propyl)-4-((3-methylphenyl)carbonyl)-2-morpholinecarboxamide]
O=C(N[C@@H](Cc1ccccc1)[C@H](O)CN[C@H]1CC2(CCCC2)Oc2ccc(OC(F)(F)F)cc21)c1ccc(=O)n(C2CCCC2)c1 [Example 135, 1-cyclopentyl-N-((2S,3R)-4-((S)-2,2-spirocyclopentyl-6-(tri-fluoromethoxy)chroman-4-ylamino)-3-hydroxy-1-phenylbutan-2-yl)-6-oxo-1,6-dihydropyridine-3-carb oxamide]
CCc1ccc2c(c1)[C@@H](NC[C@@H](O)[C@H](Cc1ccccc1)NC(=O)c1ccc(=O)n(C3CCCCC3)c1)CC1(CCCCC1)O2 [Example 129, 1-cyclohexyl-N-((2S,3R)-4-((S)-6-ethyl-2,2-spirocyclohexyl-chroman-4-ylamino)-3-hydroxy-1-phenylbutan-2-yl)-6-oxo-1,6-dihydropyridine-3-carboxamide]
O=C(N[C@@H](Cc1ccccc1)[C@H](O)CN[C@H]1CC2(CCCC2)Oc2ccc(Br)cc21)c1ccc(=O)n(C2CCCC2)c1 [Example 122]
COCCNc1ccc2c(c1)[C@@H](NC[C@@H](O)[C@@H](Cc1ccccc1)NC(=O)c1cc(-c3ccccn3)c(=O)n(C3CCCC3)c1)CC(C)(C)C2=O [Example 507, 1′-cyclopentyl-N-((1R,2R)-3-(((1S)-3,3-dimethyl-7-((2-(methyloxy)ethyl)amino)-4-oxo-1,2,3,4-tetrahydro-1-naphthalenyl)amino)-2-hydroxy-1-(phenylmethyl)propyl)-2′-oxo-1′,2′-dihydro-2,3′-bipyridine-5′-carboxamide]
CCc1ccc2c(c1)C(NC[C@@H](O)[C@H](Cc1ccccc1)NC(=O)c1cc(-c3ccccn3)c(=O)n(C3CCCC3)c1)CC1(CCCC1)O2 (stereo partly shown) [Example 5]
CCc1ccc2c(c1)[C@@H](NC[C@@H](O)[C@H](Cc1ccccc1)NC(=O)[C@H]1CN(C(=O)OC(C)(C)C)c3ccccc3O1)CC1(CCCC1)O2 [Example 52, (R)-tert-Butyl 2-(((2S,3R)-4-((S)-6-ethyl-2,2-spirocyclopentylchroman-4-ylamino)-3-hydroxy-1-phenylbutan-2-yl)carbamoyl)-2,3-dihydrobenzo[b][1,4]oxazine-4-carboxylate]
CCc1ccc2c(c1)[C@@H](NC[C@@H](O)[C@H](Cc1ccccc1)NC(=O)c1cn(C3CCCC3)c(=O)c3ccccc13)CC1(CCCC1)O2 [Example 158, 2-cyclopentyl-N-((2S,3R)-4-((S)-6-ethyl-2,2-spirocyclopentylchroman-4-ylamino)-3-hydroxy-1-phenylbutan-2-yl)-1-oxo-1,2-dihydroisoquinoline-4-carboxamide]
CCc1cc2c(s1)CC(C)(C)C[C@@H]2NC[C@@H](O)[C@H](Cc1ccccc1)NC(=O)[C@@H]1CN(C(=O)c2cccc(C)c2)CCO1 [Example 514, (2S)-N-((1S,2R)-3-(((4S)-2-ethyl-6,6-dimethyl-4,5,6,7-tetrahydro-1-benzothien-4-yl)amino)-2-hydroxy-1-(phenylmethyl)propyl)-4-((3-methylphenyl)carbonyl)-2-morpholinecarboxamide]
CCc1ccc2c(c1)[C@@H](NC[C@@H](O)[C@H](Cc1ccccc1)NC(=O)c1ccc(=O)n(-c3ccccc3)c1)CC1(CCC1)O2 [Example 120]
CCc1ccc2c(c1)[C@@H](NC[C@@H](O)[C@H](Cc1ccccc1)NC(=O)c1ccc(=O)n(CC(C)C)c1)CC1(CCC1)O2 [Example 118]
CCc1cc2c(s1)CC(C)(C)C[C@@H]2NC[C@@H](O)[C@H](Cc1ccccc1)NC(=O)[C@H]1CN(C(=O)c2cccc(C)c2)CCO1 [Example 515, (2R)-N-((1S,2R)-3-(((4S)-2-ethyl-6,6-dimethyl-4,5,6,7-tetrahydro-1-benzothien-4-yl)amino)-2-hydroxy-1-(phenylmethyl)propyl)-4-((3-methylphenyl)carbonyl)-2-morpholinecarboxamide]
CC(C)(C)Cc1ccc2c(c1)[C@H](NC[C@@H](O)[C@H](Cc1ccccc1)NC(=O)c1cc(-c3ccccn3)c(=O)n(C3CCCC3)c1)CC(C)(C)N2 [Example 488, 1′-cyclopentyl-N-((1S,2R)-3-(((4R)-6-(2,2-dimethylpropyl)-2,2-dimethyl-1,2,3,4-tetrahydro-4-quinolinyl)amino)-2-hydroxy-1-(phenylmethyl)propyl)-2′-oxo-1′,2′-dihydro-2,3′-bipyridine-5′-carboxamide]
CCc1ccc2c(c1)[C@@H](NC[C@@H](O)[C@H](Cc1ccccc1)NC(=O)c1cn(C3CCCC3)c(=O)c3ccccc13)CC1(CCC1)O2 [Example 162]
CCc1cc2c(s1)CC1(CCC1)C[C@@H]2NC[C@@H](O)[C@H](Cc1ccccc1)NC(=O)c1cc(-c2ccccn2)c(=O)n(C(C)C)c1 [Example 508, N-((1S,2R)-3-(((4S)-2-ethyl-4,7-dihydro-5H-spiro[1-benzothiophene-6,1′-cyclobutan]-4-yl)amino)-2-hydroxy-1-(phenylmethyl)propyl)-1′-(1-methylethyl)-2′-oxo-1′,2′-dihydro-2,3′-bipyridine-5′-carboxamide]
CC(C)n1cc(C(=O)N[C@@H](Cc2ccccc2)[C@H](O)CN[C@H]2CC(C)(C)Cc3sc(CC(C)(C)C)cc32)cc(-c2ccccn2)c1=O [Example 501, N-((1S,2R)-3-(((4S)-2-(2,2-dimethylpropyl)-6,6-dimethyl-4,5,6,7-tetrahydro-1-benzothien-4-yl)amino)-2-hydroxy-1-(phenylmethyl)propyl)-1′-(1-methylethyl)-2′-oxo-1′,2′-dihydro-2,3′-bipyridine-5′-carboxamide]
CCc1ccc2c(c1)[C@@H](NC[C@@H](O)[C@H](Cc1ccccc1)NC(=O)c1cc(N3CCCC3=O)c(=O)n(C3CCCC3)c1)CC1(CCCC1)O2 [Example 105]
CCc1ccc2c(c1)[C@@H](NC[C@@H](O)[C@H](Cc1ccccc1)NC(=O)c1cc(-c3ccccc3F)c(=O)n3c1CCC3C)CC1(CCCC1)O2 (stereo partly shown) [Example 159]
Cc1cccc(C(=O)N2CCO[C@@H](C(=O)N[C@@H](Cc3ccccc3)[C@H](O)CN[C@H]3CC4(CCC4)Cc4ncc(C)cc43)C2)c1 [Example 495, (2R)-N-((1S,2R)-2-hydroxy-3-(((5′S)-3′-methyl-5′,8′-dihydro-6′H-spiro[cyclobutane-1,7′-quinolin]-5′-yl)amino)-1-(phenylmethyl)propyl)-4-((3-methylphenyl)carbonyl)-2-morpholinecarboxamide]
O=C(N[C@@H](Cc1ccccc1)[C@H](O)CN[C@H]1CC2(CCC2)Oc2ccc(N3CCOCC3)cc21)[C@@H]1CN(C(=O)C2CCOCC2)CCO1 [Example 526, (2S)-N-((1S,2R)-2-hydroxy-3-(((4S)-6-(4-morpholinyl)-3,4-dihydrospiro[chromene-2,1′-cyclobutan]-4-yl)amino)-1-(phenylmethyl)propyl)-4-(tetrahydro-2H-pyran-4-ylcarbonyl)-2-morpholinecarboxamide]
CCc1ccc2c(c1)[C@@H](NC[C@@H](O)[C@H](Cc1ccccc1)NC(=O)[C@@H]1C[C@@H](c3ccccc3)CN(C(=O)c3cccc(C)c3)C1)CC1(CCC1)O2 [Example 527, (3R,5S)-N-((1S,2R)-3-(((4S)-6-ethyl-3,4-dihydrospiro[chromene-2,1′-cyclobutan]-4-yl)amino)-2-hydroxy-1-(phenylmethyl)propyl)-1-((3-methylphenyl)carbonyl)-5-phenyl-3-piperidinecarboxamide]
